In patent US11321826B2, “High throughput method for accurate prediction of compound-induced liver injury” (AGENCY FOR SCIENCE, TECHNOLOGY AND RESEARCH, priority 2016, dated 2022):
Like-named read-outs stand apart in the source and are kept apart here. Where a SMILES comes first, the peptide text is derived from it.

What was measured:
hepatocytes in vivo = settings: cited from earlier work
[1] = tested on: other organs than the liver; settings: in vivo; cited from earlier work
HepaRG cells = experiment: High-content imaging of HepaRG cells after fluorescent staining of RELA and nuclear DNA; settings: 16 h treatment; puromycin 100 μg/mL, acarbose 1000 μg/mL, tetracycline 1000 μg/mL, ethylene glycol 100 μg/mL, lithium chloride 1000 μg/mL; FIG. 3
Method: The HepG2 cells were cultured in T75 Corning Costar flasks with Dulbecco's modified eagle medium (DMEM) supplemented with 10% fetal bovine serum (FBS) and 1% penicillin-streptomycin. The HepG2 cells were seeded into 384-well black plates with transparent bottom (#781091; Greiner, Kremsmuenster, Austria) at a density of 10.000 cells/cm^2. The HepG2 cells were cultured for three days to attain confluency before overnight compound treatment of sixteen hours. The HepaRG cells were directly seeded at a density of 250.000 cells/cm^2 into 384-well black plates with transparent bottom (#781091; Greiner) coated with 100 μg/mL collagen I. For the first twenty-four hours of cultivation a Williams E medium, supplemented with HepaRG Thaw, Plate & General Purpose medium was used. […]
Screening was performed by using a dose-range of the following seven concentrations for each compound: 2 μM, 15 μM, 63 μM, 125 μM, 250 μM, 500 μM and 1 mM. […] Z′ values of each plate were calculated and values were all above 0.5, ranging from 0.62 to 0.89.
Cells were fixed for six hours with 3.7% formaldehyde in phosphate-buffered saline (PBS) after sixteen hours of compound exposure. […] F-actin was detected on every plate with rhodamine phalloidin (#R415; 1:100; Invitrogen, Singapore). […]

[2] = classification based on literature on compound-induced clinical effects in humans

SMILES | toxicity for hepatocytes in vivo (hepatocytes in vivo; [2]) | other results
COC(=O)[C@H](Cc1ccccc1)NC(=O)[C@@H](N)CC(=O)O [Aspartame] (H-Asp-Phe-OMe) | not toxic | 
Cn1cnc([N+](=O)[O-])c1Sc1ncnc2nc[nH]c12 [Azathioprine] | toxic | 
[Cl][Cd][Cl] [Cadmium Chloride] | toxic | 
Cn1c(=O)c2c(ncn2C)n(C)c1=O [Caffeine] | not toxic | 
OCCO [Ethylene glycol, ethylene glycol] |  | toxicity in humans for other organs than the liver [1]: nephrotoxic and neurotoxic; phenotypic changes / altered distribution of RELA (NF-κB p65) in HepaRG cells versus vehicle control (HepaRG cells): did not induce obvious phenotypic changes
CN1CCCC1c1cccnc1 (centres unmarked) [Nicotine] |  | toxicity for hepatocytes in vivo (hepatocytes in vivo; human, in vivo): not toxic
COc1ccc(C[C@H](N)C(=O)N[C@H]2[C@@H](O)[C@H](n3cnc4c(N(C)C)ncnc43)O[C@@H]2CO)cc1 [Puromycin, puromycin] | toxic | 
C[C@H]1O[C@H](O[C@H]2[C@H](O)[C@@H](O)[C@@H](O[C@H]3[C@H](O)[C@@H](O)C(O)O[C@@H]3CO)O[C@@H]2CO)[C@H](O)[C@@H](O)[C@@H]1N[C@H]1C=C(CO)[C@@H](O)[C@H](O)[C@H]1O (some centres unmarked) [acarbose] | toxic for hepatocytes in vivo | 
[Cl-].[Li+] [lithium chloride] |  | toxicity in humans for other organs than the liver [1]: nephrotoxic
CN(C)[C@@H]1C(O)=C(C(N)=O)C(=O)[C@@]2(O)C(O)=C3C(=O)c4c(O)cccc4[C@@](C)(O)[C@H]3C[C@@H]12 [tetracycline] | toxic for hepatocytes in vivo | 
